{"source": "patent US20080072337A1", "about": "“Braf Expression in Zebrafish and Uses Thereof” (Children's Medical Center Corporation, priority 2004, published 2008)", "tested_on": "zebrafish", "experiment": "Examination of DMBA treated zebrafish for melanoma", "format": "in vivo", "settings": "over 10,000 DMBA treated zebrafish examined; unpublished data of the applicants"}
{"compound": "Cc1c2ccccc2c(C)c2c1ccc1ccccc12", "note": "[DMBA]", "values": [{"measurement": "melanoma identified in treated zebrafish", "result": "failed to identify a single melanoma"}]}
